EPA's CvTdb concentration-time database

Legend:
Mouse [1] = experiment: concentration in plasma after dosing; details: 2 h; dosed: 2-Hydroxy-4-methoxybenzophenone; 250 mg/kg; oral; Male; B6C3F1
Mouse [2] = experiment: concentration in plasma after dosing; details: 0.25 h; dosed: 2-Hydroxy-4-methoxybenzophenone; 250 mg/kg; oral; Male; B6C3F1
Rat [3] = experiment: concentration in plasma after dosing; details: dosed: 2-Hydroxy-4-methoxybenzophenone, 250 mg/kg, oral, Male, F344
Rat [4] = experiment: concentration in plasma after dosing; details: dosed: 2-Hydroxy-4-methoxybenzophenone, 100 mg/kg, oral, Male, F344
Mouse [5] = experiment: concentration in plasma after dosing; details: 2 h; dosed: 2-Hydroxy-4-methoxybenzophenone; 250 mg/kg; oral; Female; B6C3F1
Rat [6] = experiment: concentration in plasma after dosing; details: 4 h; dosed: 2-Hydroxy-4-methoxybenzophenone; 500 mg/kg; oral; Male; F344
Mouse [7] = experiment: concentration in plasma after dosing; details: 0.25 h; dosed: 2-Hydroxy-4-methoxybenzophenone; 500 mg/kg; oral; Male; B6C3F1
Rat [8] = experiment: concentration in plasma after dosing; details: 0.25 h; dosed: Primidone; 30 mg/kg; oral; Female; F344
Rat [9] = experiment: concentration in plasma after dosing; details: 9 h; dosed: Primidone; 30 mg/kg; oral; Female; F344
Rat [10] = experiment: concentration in plasma after dosing; details: 0.25 h; dosed: Primidone; 30 mg/kg; oral; Male; F344
Rat [11] = experiment: concentration in plasma after dosing; details: 0.5 h; dosed: Primidone; 80 mg/kg; oral; Female; F344
Rat [12] = experiment: concentration in plasma after dosing; details: 3 h; dosed: Primidone; 80 mg/kg; oral; Male; F344
Rat [13] = experiment: concentration in plasma after dosing; details: 3 h; dosed: Primidone; 30 mg/kg; oral; Male; F344
Rat [14] = experiment: concentration in plasma after dosing; details: 10 min; dosed: 2,4-Dichlorophenoxyacetic acid; 2.0 mg/kg; iv; Male; Sprague-Dawley
Rat [15] = experiment: concentration in brain after dosing; details: 10 min; dosed: alpha-Thujone; 50 mg/kg; oral; Female; Harlan Sprague Dawley
Rat [16] = experiment: concentration in plasma after dosing; details: 10 min; dosed: alpha-Thujone; 25 mg/kg; oral; Male; Harlan Sprague Dawley
Rat [17] = experiment: concentration in brain after dosing; details: 3 h; dosed: alpha-Thujone; 25 mg/kg; oral; Male; Harlan Sprague Dawley
Rat [18] = experiment: concentration in plasma after dosing; details: 3 h; dosed: alpha-Thujone; 25 mg/kg; oral; Male; Harlan Sprague Dawley
Rat [19] = experiment: concentration in plasma after dosing; details: 1.5 h; dosed: alpha-Thujone; 25 mg/kg; oral; Male; Harlan Sprague Dawley
Rat [20] = experiment: concentration in plasma after dosing; details: 2 min; dosed: alpha-Thujone; 50 mg/kg; oral; Female; Harlan Sprague Dawley
Rat [21] = experiment: concentration in brain after dosing; details: 2 min; dosed: alpha-Thujone; 50 mg/kg; oral; Male; Harlan Sprague Dawley
Rat [22] = experiment: concentration in plasma after dosing; details: 3 h; dosed: alpha-Thujone; 50 mg/kg; oral; Female; Harlan Sprague Dawley
Rat [23] = experiment: concentration in liver after dosing; details: 528 h; dosed: Perfluorohexane-1-sulphonic acid – potassium salt; 16 mg/kg; oral; Female; F344
Rat [24] = experiment: concentration in brain after dosing; details: 12 h; dosed: Perfluorohexane-1-sulphonic acid – potassium salt; 16 mg/kg; oral; Female; Harlan Sprague Dawley
Rat [25] = experiment: concentration in kidney after dosing; details: 12 h; dosed: Perfluorohexane-1-sulphonic acid – potassium salt; 16 mg/kg; oral; Female; Harlan Sprague Dawley
Rat [26] = experiment: concentration in kidney after dosing; details: 24 h; dosed: Perfluorohexane-1-sulphonic acid – potassium salt; 16 mg/kg; oral; Female; Harlan Sprague Dawley
Rat [27] = experiment: concentration in brain after dosing; details: 12 h; dosed: Perfluorohexane-1-sulphonic acid – potassium salt; 16 mg/kg; oral; Female; Harlan Sprague Dawley; remark: listed apart in the source
Rat [28] = experiment: concentration in brain after dosing; details: 24 h; dosed: Perfluorohexane-1-sulphonic acid – potassium salt; 16 mg/kg; oral; Female; Harlan Sprague Dawley
Rat [29] = experiment: concentration in liver after dosing; details: 3 h; dosed: Perfluorohexane-1-sulphonic acid – potassium salt; 16 mg/kg; oral; Female; F344
Rat [30] = experiment: concentration in plasma after dosing; details: 5 min; dosed: Pyridine; 10 mg/kg; iv; Male; F344
Rat [31] = experiment: concentration in plasma after dosing; details: dosed: Pyridine, 5 mg/kg, iv, Male, F344
Rat [32] = experiment: concentration in plasma after dosing; details: 10 min; dosed: Pyridine; 10 mg/kg; oral; Male; F344
Rat [33] = experiment: concentration in plasma after dosing; details: dosed: Pyridine, 5 mg/kg, oral, Male, F344
Rat [34] = experiment: concentration in plasma after dosing; details: 2 min; dosed: Pyridine; 10 mg/kg; iv; Male; F344
Rat [35] = experiment: concentration in plasma after dosing; details: dosed: Methyleugenol, 37 mg/kg, iv, Female, F344
Rat [36] = experiment: concentration in plasma after dosing; details: dosed: Methyleugenol, 37 mg/kg, iv, Male, F344
Rat [37] = experiment: concentration in plasma after dosing; details: dosed: Methyleugenol, 37 mg/kg, iv, Male, F344; remark: listed apart in the source
Rat [38] = experiment: concentration in plasma after dosing; details: dosed: Methyleugenol, 37 mg/kg, oral, Male, F344/N
Rat [39] = experiment: concentration in plasma after dosing; details: 2 min; dosed: Methyleugenol; 37 mg/kg; iv; Female; F344

O=C(c1ccccc1)c1ccc(O)cc1O [2,4-Dihydroxybenzophenone]
Details	concentration in plasma [ng/mL]
Mouse [1]	266
Mouse [2]	1130
Mouse [5]	472
Mouse [7]	1980
Rat [6]	181

concentration in plasma [ng/mL]
Details	Rat [3]	Rat [4]
0.25 h	83	61.2
4 h	121	48.4

CCC1(c2ccccc2)C(=O)NCNC1=O [Primidone]
Details	concentration in plasma [ng/mL]
Rat [8]	17700
Rat [9]	6000
Rat [10]	6800
Rat [11]	40300
Rat [12]	37200
Rat [13]	7700

O=C(O)COc1ccc(Cl)cc1Cl [2,4-Dichlorophenoxyacetic acid]
Details	concentration in plasma [ng/mL]
Rat [14]	13200

CC(C)[C@]12CC(=O)[C@H](C)[C@H]1C2 [alpha-Thujone]
Details	concentration in brain [ng/g]	concentration in plasma [ng/mL]
Rat [15]	1800	–
Rat [16]	–	248
Rat [17]	176	–
Rat [18]	–	113
Rat [19]	–	95.4
Rat [20]	–	146
Rat [21]	385	–
Rat [22]	–	244

O=S(=O)([O-])C(F)(F)C(F)(F)C(F)(F)C(F)(F)C(F)(F)C(F)(F)F.[K+] [Perfluorohexane-1-sulphonic acid – potassium salt]
Details	concentration in brain [ng/g]	concentration in kidney [ng/g]	concentration in liver [ng/g]
Rat [23]	–	–	20900
Rat [24]	1140	–	–
Rat [25]	–	25000	–
Rat [26]	–	22700	–
Rat [27]	1190	–	–
Rat [28]	701	–	–
Rat [29]	–	–	63900

c1ccncc1 [Pyridine]
Details	concentration in plasma [ng/mL]
Rat [30]	2510
Rat [32]	5480
Rat [34]	10100

concentration in plasma [ng/mL]
Details	0.25 h	1 h	6 h	8 h
Rat [31]	3730	–	1300	–
Rat [33]	–	3160	–	1170

C=CCc1ccc(OC)c(OC)c1 [Methyleugenol]
Details	concentration in plasma [ng/mL]
Rat [35], 3 h	158
Rat [35], 5 min	28900
Rat [36], 0.5 h	4010
Rat [36], 0.75 h	2000
Rat [37], 0.25 h	9380
Rat [37], 1.5 h	670
Rat [38], 2 min	36
Rat [38], 3 h	46.1

Details	concentration in plasma [ng/mL]
Rat [39]	47500
